Reference: the supplement of paper PMC4862054

Key:
Conditions in all cases: incubation time: 72 h
BT-549 = assay: drug sensitivity score (DSS), CellTox Green (DSS (AUC-based score)); higher = stronger drug effect (viability inhibition or cytotoxicity); extreme values may be limits of the assay
Method in brief: (§1)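 Using 20 µl of cell suspension per well, breast cancer cell lines were seeded into 384-well plates pre-loaded with compound at 5 concentrations in 10-fold steps across a compound-specific 10,000-fold range. Incubation lasted 72 h, after which CellTox Green fluorescence at 485/520 nm and then CellTiter-Glo luminescence, following 10 min at room temperature, were recorded. Each plate was normalised to 0.1 % DMSO and a positive kill control before the drug sensitivity score was derived from the area under the fitted dose-response curve.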

HDQ-P1 = assay: as above
Method in brief: as §1

DU-4475 = assay: as above
Method in brief: as §1

MDA-MB-231 = assay: as above
Method in brief: as §1

CAL-120 [1] = assay: as above
Method in brief: as §1

MFM-223 = assay: as above
Method in brief: as §1

CAL-51 [2] = assay: as above
Method in brief: as §1

MCF-10A = assay: as above
Method in brief: as §1

CAL-148 = assay: as above
Method in brief: as §1

MDA-MB-436 [3] = assay: as above
Method in brief: as §1

CAL-85-1 [4] = assay: as above
Method in brief: as §1

MDA-MB-468 [5] = assay: as above
Method in brief: as §1

Hs578T [6] = assay: as above
Method in brief: as §1

HCC1599 [7] = assay: as above
Method in brief: as §1

BT-474 = assay: as above
Method in brief: as §1

HCC1143 = assay: as above
Method in brief: as §1

HCC1937 = assay: as above
Method in brief: as §1

CAL-120 [8] = assay: normalised viability (% of control), CellTiter-Blue; higher = more viable cells (about 100 = DMSO control)
Method in brief: (§2)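 Each entry is normalised viability at a single listed concentration within a series. It comes from breast cancer cell lines incubated 72 h with compound in 384-well plates, then measured with CellTiter-Blue fluorescence at 560/590 nm. Every plate was normalised between vehicle (100) and a positive kill control (0).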

CAL-51 [9] = assay: as above
Method in brief: as §2

MDA-MB-436 [10] = assay: as above
Method in brief: as §2

CAL-85-1 [11] = assay: as above
Method in brief: as §2

MDA-MB-468 [12] = assay: as above
Method in brief: as §2

Hs578T [13] = assay: as above
Method in brief: as §2

HCC1599 [14] = assay: as above
Method in brief: as §2

MDA-MB-453 = assay: drug sensitivity score (DSS), CellTox Green (DSS (AUC-based score)); higher = stronger drug effect (viability inhibition or cytotoxicity); extreme values may be limits of the assay
Method in brief: as §1

| SMILES | drug sensitivity score (BT-549) | drug sensitivity score (HDQ-P1) | drug sensitivity score (DU-4475) | drug sensitivity score (MDA-MB-231) | drug sensitivity score (CAL-120 [1]) | drug sensitivity score (MFM-223) | drug sensitivity score (CAL-51 [2]) | drug sensitivity score (MCF-10A) | drug sensitivity score (CAL-148) | drug sensitivity score (MDA-MB-436 [3]) | drug sensitivity score (CAL-85-1 [4]) | drug sensitivity score (MDA-MB-468 [5]) | drug sensitivity score (Hs578T [6]) | drug sensitivity score (HCC1599 [7]) | drug sensitivity score (BT-474) | drug sensitivity score (HCC1143) | drug sensitivity score (HCC1937) | normalised viability (CAL-120 [8]; 10 nM) | normalised viability (CAL-120 [8]; 1000 nM) | normalised viability (CAL-120 [8]; 10000 nM) | normalised viability (CAL-51 [9]; 3 nM) | normalised viability (CAL-51 [9]; 30 nM) | normalised viability (CAL-51 [9]; 100 nM) | normalised viability (MDA-MB-436 [10]; 10 nM) | normalised viability (MDA-MB-436 [10]; 1000 nM) | normalised viability (MDA-MB-436 [10]; 10000 nM) | normalised viability (CAL-85-1 [11]; 3 nM) | normalised viability (CAL-85-1 [11]; 30 nM) | normalised viability (CAL-85-1 [11]; 100 nM) | normalised viability (MDA-MB-468 [12]; 10 nM) | normalised viability (MDA-MB-468 [12]; 1000 nM) | normalised viability (MDA-MB-468 [12]; 10000 nM) | normalised viability (Hs578T [13]; 10 nM) | normalised viability (Hs578T [13]; 1000 nM) | normalised viability (Hs578T [13]; 10000 nM) | normalised viability (HCC1599 [14]; 10 nM) | normalised viability (HCC1599 [14]; 1000 nM) | normalised viability (HCC1599 [14]; 10000 nM) | drug sensitivity score (MDA-MB-453) |
| --- | --- | --- | --- | --- | --- | --- | --- | --- | --- | --- | --- | --- | --- | --- | --- | --- | --- | --- | --- | --- | --- | --- | --- | --- | --- | --- | --- | --- | --- | --- | --- | --- | --- | --- | --- | --- | --- | --- | --- |
| Oc1ncnc2[nH]ncc12 [Allopurinol] | 0 | 0 | 0 | 0 | 0 | 0 | 0 | 0 | 0 | 0 | 0.422 | 0 | 0 | 0 | 0 | 0 | 0 | 120% | 109% | 108% | 98.2% | 91.9% | 94.8% | 100% | 101% | 93.4% | 109% | 98% | 106% | 102% | 99.7% | 103% | 108% | 120% | 106% | 87.1% | 77.3% | 90.1% |  |
| CC1=C2C[C@H]3[C@@H](CC=C4C[C@@H](O)CC[C@@]43C)[C@@H]2CC[C@]12O[C@@H]1C[C@H](C)CN[C@H]1[C@H]2C [Cyclopamine] | 0 | 0 | 0 | 0 | 0 | 0 | 0 | 0 | 0 | 0 | 0 | 0 | 0 | 0 | 0 | 2.47 |  | 98.1% | 98.4% | 97.3% | 114% | 104% | 111% | 110% | 80.5% | 114% | 104% | 91.9% | 99.9% | 100% | 102% | 90.9% | 127% | 102% | 105% | 108% | 112% | 100% | 0 |
| C[C@]1(O)C[C@@H](c2nc(-c3ccc4ccc(-c5ccccc5)nc4c3)c3c(N)nccn32)C1 [OSI-906] |  |  |  |  |  |  |  |  |  |  |  |  |  |  |  |  |  | 96.6% | 84.2% | 56.2% | 91.2% | 97.5% | 96.3% | 85.2% | 96% | 71.7% | 97.3% | 85.7% | 86.4% | 104% | 86.5% | 84.6% | 103% | 95.2% | 71.4% | 104% | 76.8% | 78.9% |  |
| CC(=O)N(O)CCCCCNC(=O)CCC(=O)N(O)CCCCCNC(=O)CCC(=O)N(O)CCCCCN [Deferoxamine] | 0 | 0 | 0 | 0 | 0 | 0 | 4.29 | 0 | 7.47 | 0 | 0 | 0 | 0 | 0 | 0 | 0 | 0 |  |  |  |  |  |  |  |  |  |  |  |  |  |  |  |  |  |  |  |  |  | 0 |
| O=C1CN2Cc3c(ccc(Cl)c3Cl)N=C2N1 [Anagrelide] | 0 | 0 | 0 | 0 | 0 | 0 | 14.2 | 0 |  | 0 | 0 | 0 | 0 | 0 | 0 | 0 | 0 | 91.3% | 91.9% | 86.2% | 110% | 96.5% | 84.3% | 79.2% | 97% | 99% | 102% | 84.7% | 97.1% | 106% | 103% | 111% | 101% | 90.9% | 88.2% | 112% | 93.1% | 89.3% | 0 |
